The results in this text go back to patent publication US11530244B2, “Cyclic polypeptides for PCSK9 inhibition” (priority 2018, dated 2022).

Starred links: 1 amine or outer side, 2 acyl side, 3 side chain; linkers in the order of their positions; H or OH if unused. Positions of bridges follow the written chain, without caps; N, C: chain ends. Non-standard residues stand in square brackets, D forms with d. Residues, ends and D or L forms follow the SMILES beside them. ξ: configuration not given here. *: point of attachment. Pro(trans-4-cHex) = O=C(O)[C@@H]1C[C@@H](C2CCCCC2)CN1; X25 = O=C([C@H](Cc1cccc(OCC=[*:3])c1)N[*:1])[*:2]; Trp(5-F) = N[C@@H](Cc1c[nH]c2ccc(F)cc12)C(=O)O; Pro(3R-Ph) = O=C(O)[C@H]1NCC[C@@H]1c1ccccc1; X3 = O=C(CCSCc1cc(F)cc(CSCCN[*:1])c1)[*:2]; X42 = CN([C@@H](CCC=[*:3])C(=O)[*:2])[*:1]; mXylylene = c1cc(C[*:1])cc(C[*:2])c1; ξAEF = NCCOc1ccc(CC(N)C(=O)O)cc1; αMeP = C[C@@]1(C(=O)O)CCCN1; Aib = CC(C)(N)C(=O)O; OBn = c1ccc(CO*)cc1; Mpa = O=C(O)CCS

This test deals with human PCSK9 / human LDLR EGFa domain interaction (Homo sapiens (Human), UniProt Q8NBP7). Kind of test: TR-FRET assay of inhibition of the PCSK9-LDLR protein-protein interaction. It is filed as binding. As to conditions: TR-FRET, 20 nM human PCSK9, 20 nM human LDLR EGFa domain, 2 hours room temperature; read-out: IC50. A digest of the protocol: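 Half-maximal inhibition was derived by 4-parameter fitting of dose-response TR-FRET data. Each well held 20 nM His-LDLR EGFa, 20 nM avitag-biotinylated PCSK9, Eu-anti-6×His and Ulight-streptavidin (5 nM each) in 50 mM HEPES, 150 mM NaCl, 5 mM CaCl2, 0.01% BSA, 0.01% Surfactant P20, incubated 2 h at room temperature.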
Sequence of human PCSK9 / human LDLR EGFa domain interaction (Q8NBP7 153-692): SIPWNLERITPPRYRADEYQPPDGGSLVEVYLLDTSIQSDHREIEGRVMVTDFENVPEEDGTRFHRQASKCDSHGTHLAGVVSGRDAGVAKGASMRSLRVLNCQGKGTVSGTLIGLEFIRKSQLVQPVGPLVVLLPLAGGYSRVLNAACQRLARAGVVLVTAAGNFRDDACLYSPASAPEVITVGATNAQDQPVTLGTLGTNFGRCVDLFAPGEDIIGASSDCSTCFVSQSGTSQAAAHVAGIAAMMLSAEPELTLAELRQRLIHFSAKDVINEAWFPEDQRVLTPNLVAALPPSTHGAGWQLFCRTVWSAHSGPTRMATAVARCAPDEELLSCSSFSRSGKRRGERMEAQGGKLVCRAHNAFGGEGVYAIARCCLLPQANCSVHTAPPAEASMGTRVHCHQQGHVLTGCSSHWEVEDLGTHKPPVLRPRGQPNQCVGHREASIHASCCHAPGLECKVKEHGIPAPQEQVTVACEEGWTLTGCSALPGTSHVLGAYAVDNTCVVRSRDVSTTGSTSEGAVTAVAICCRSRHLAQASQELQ
Sequence of human PCSK9 / human LDLR EGFa domain interaction (Q8NBP7 31-152 partner): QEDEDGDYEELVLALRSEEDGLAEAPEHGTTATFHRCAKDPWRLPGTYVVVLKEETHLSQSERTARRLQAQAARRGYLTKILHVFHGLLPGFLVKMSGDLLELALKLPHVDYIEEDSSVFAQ
On the technique in general: Time-resolved FRET reads energy transfer from a long-lived donor to a nearby acceptor.
Take `NCCCC[C@@H]1NC(=O)CCSCc2cccc(c2)CSC[C@@H](C(N)=O)NC(=O)[C@@H]2C[C@@H](C3CCCCC3)CN2C(=O)[C@H](Cc2ccc(O)cc2)NC(=O)[C@H](Cc2c[nH]cn2)NC(=O)[C@H](CC(=O)O)NC(=O)[C@H](Cc2c[nH]c3ccc(F)cc23)NC(=O)[C@H](Cc2c[nH]c3ccc(F)cc23)NC(=O)CNC1=O` [Compound 304] ([Mpa]KG[Trp(5-F)][Trp(5-F)]DHY[Pro(trans-4-cHex)]C-NH2; linker 1-10 via mXylylene): the IC50 was 21 to 50 µM.
The same measure for `C[C@@H]1NC(=O)CCSCc2cccc(c2)CSC[C@@H](C(N)=O)NC(=O)[C@]2(C)CCCN2C(=O)[C@H](Cc2ccc(O)cc2)NC(=O)[C@H](Cc2cnc[nH]2)NC(=O)[C@H](CC(=O)O)NC(=O)[C@H](Cc2c[nH]c3ccc(F)cc23)NC(=O)[C@H](Cc2c[nH]c3ccc(F)cc23)NC(=O)CNC1=O` [Compound 308] ([Mpa]AG[Trp(5-F)][Trp(5-F)]DHY[αMeP]C-NH2; linker 1-10 via mXylylene): 1 to 12.1 µM.
Then `CC1(C)NC(=O)[C@H](Cc2c[nH]c3ccc(F)cc23)NC(=O)CNC(=O)[C@H](CCCCN)NC(=O)CCSCc2cccc(c2)CSC[C@@H](C(N)=O)NC(=O)[C@@H]2CCCN2C(=O)[C@H](Cc2ccc(O)cc2)NC(=O)[C@H](Cc2cnc[nH]2)NC(=O)[C@H](CC(=O)O)NC1=O` [Compound 317] ([Mpa]KG[Trp(5-F)][Aib]DHYPC-NH2; linker 1-10 via mXylylene), with 21 to 50 µM; and `CC1(C)NC(=O)[C@H](Cc2cnc[nH]2)NC(=O)[C@H](CC(=O)O)NC(=O)[C@H](Cc2c[nH]c3ccc(F)cc23)NC(=O)[C@H](Cc2c[nH]c3ccc(F)cc23)NC(=O)CNC(=O)[C@H](CCCCN)NC(=O)CCSCc2cccc(c2)CSC[C@@H](C(N)=O)NC(=O)[C@@H]2CCCN2C1=O` [Compound 318] ([Mpa]KG[Trp(5-F)][Trp(5-F)]DH[Aib]PC-NH2; linker 1-10 via mXylylene), with 0.0001 to 0.1 µM.
Take `C[C@H]1NC(=O)[C@H](Cc2ccc(O)cc2)NC(=O)[C@H](Cc2cnc[nH]2)NC(=O)[C@H](CC(=O)O)NC(=O)[C@H](Cc2c[nH]c3ccc(F)cc23)NC(=O)[C@H](Cc2c[nH]c3ccc(F)cc23)NC(=O)CNC(=O)[C@H](CCCCN)NC(=O)CCSCc2cccc(c2)CSC[C@@H](C(N)=O)NC1=O` [Compound 320] ([Mpa]KG[Trp(5-F)][Trp(5-F)]DHY[dA]C-NH2; linker 1-10 via mXylylene): the 50% inhibitory concentration (IC50) was in the range of 21 to 50 µM.
In the case of `CC(=O)N[C@@H]1CC(=O)NCCOc2ccc(cc2)CC(C(N)=O)NC(=O)[C@]2(C)CCCN2C(=O)[C@H](Cc2ccc(O)cc2)NC(=O)[C@H](Cc2cnc[nH]2)NC(=O)[C@H](CC(=O)OCc2ccccc2)NC(=O)[C@H](Cc2c[nH]c3ccc(F)cc23)NC(=O)[C@H](Cc2c[nH]c3ccc(F)cc23)NC(=O)CNC1=O` (stereo partly shown) [Compound 321] (Ac-[dD]G[Trp(5-F)][Trp(5-F)]D(OBn)HY[αMeP][ξAEF]-NH2; lactam 1-9), the IC50 fell in the range of 0.1 to 1 µM.
Then `NCCCC[C@@H]1NC(=O)CCSCc2cccc(c2)CSC[C@@H](C(N)=O)NC(=O)[C@@H]2CCCN2C(=O)[C@@H]2[C@@H](c3ccccc3)CCN2C(=O)[C@H](Cc2c[nH]cn2)NC(=O)[C@H](CC(=O)O)NC(=O)[C@H](Cc2c[nH]c3ccc(F)cc23)NC(=O)[C@H](Cc2c[nH]c3ccc(F)cc23)NC(=O)CNC1=O` [Compound 326] ([Mpa]KG[Trp(5-F)][Trp(5-F)]DH[Pro(3R-Ph)]PC-NH2; linker 1-10 via mXylylene), with 1 to 12.1 µM; and `COc1ccc(C[C@@H]2NC(=O)[C@H]([C@@H](C)OC)NC(=O)[C@@H]3CC/C=C/COc4cccc(c4)C[C@H](NC(=O)[C@@H](C)NC(=O)[C@H](C)NC(=O)CCSCc4cc(F)cc(c4)CSCCNC(=O)[C@]4(C)CCCN4C2=O)C(=O)N[C@@H](Cc2c[nH]c4ccc(F)cc24)C(=O)N3C)cc1` [Compound 504] (cyclo(A[dA][X25][Trp(5-F)][X42]T(Me)Y(Me)[αMeP][X3]); staple (E) 3-5), with 0.1 to 1 µM; and `COc1ccc(C[C@@H]2NC(=O)[C@H]([C@@H](C)OC)NC(=O)[C@@H]3CC/C=C\COc4cccc(c4)C[C@H](NC(=O)[C@@H](C)NC(=O)[C@H](C)NC(=O)CCSCc4cc(F)cc(c4)CSCCNC(=O)[C@]4(C)CCCN4C2=O)C(=O)N[C@@H](Cc2c[nH]c4ccc(F)cc24)C(=O)N3C)cc1` [Compound 505] (cyclo(A[dA][X25][Trp(5-F)][X42]T(Me)Y(Me)[αMeP][X3]); staple (Z) 3-5), with 0.1 to 1 µM.
In the case of `COc1ccc(C[C@@H]2NC(=O)[C@@H]3CCCC/C=C/CO[C@H]4C[C@@H](C(=O)N3)N(C4)C(=O)[C@H](Cc3c[nH]c4ccc(F)cc34)NC(=O)[C@H](Cc3c[nH]c4ccc(F)cc34)NC(=O)[C@@H](C)NC(=O)[C@H](CCCCN)NC(=O)CCSCc3cccc(c3)CSC[C@@H](C(N)=O)NC(=O)[C@]3(C)CCCN3C2=O)cc1` [Compound 508], the half-maximal inhibitory concentration (IC50) was 0.1 to 1 µM.

What is called IC50 is the concentration that inhibits the measured activity by half.
